The target in one data set is T1, EP4 receptor (Homo sapiens, UniProt P35408).
T1 construct: endogenous in cells; host or cells: Jurkat cells (human leukemia T lymphoma), no transfection described
The data set is described as follows: EP4 receptor antagonistic activity by measurement of cAMP amount in human Jurkat cells (HTRF). The format is cell-based. The conditions noted are these: inhibition of cAMP, PGE2 100 nM. The method, then:
Evaluation Test of EP4 Receptor Antagonistic Activity by Measurement of cAMP Amount in Human Jurkat Cells
Jurkat cells (derived from human leukemia T lymphoma) were cultured with RPMI1640 (added with 10% fetal bovine serum) using a F75 flask. After proliferation to semiconfluency, indomethacin having a final concentration of 5 μM was added thereto, and the cells were further cultured for 18 hours. The cells were collected in a 15-mL Spitz tube, prepared to be 1×10^6 cells/mL using a Cell Banker (Mitsubishi Kagaku Iatron), and stored at −80° C. until used for assay. The cells were cultured in a CO2 incubator (37° C., 5% CO2).
A cAMP HiRange kit (Cisbio international) was used for cAMP measurement. A test compound, PGE2, and the cells were diluted and prepared with an assay buffer. The test compound was prepared to have a 3-fold concentration relative to the final concentration, PGE2 was prepared to be 300 nM, and the Jurkat cells frozen stored were prepared to be 1×10^6 cells/mL by thawing them at 37° C. To a 384-well U-bottom black microplate (Corning) were added the test compound, the cells, and PGE2 in this order in each in an amount of 5 μL, followed by shaking with a plate shaker and incubating at room temperature for 30 minutes. After incubation, 5 μL of a d2 reagent which had been diluted 0.6-fold with a lysis buffer was added to each well, followed by shaking with a plate shaker. Subsequently, 5 μL of an europium cryptate reagent which had been diluted 0.6-fold with a lysis buffer was added to each well, followed by shaking with a plate shaker and incubating at room temperature for 60 minutes under light shielding. After incubation, the fluorescence of the cryptate at 620 nm and the fluorescence of the d2 at 655 nm were measured using ARVO1420 (PerkinElmer). The cAMPs of 280, 70, 17.5, 4.38, 1.09, 0.27, and 0.068 nM were measured simultaneously for creating a standard curve. All measurements were performed in quadruplicate, and inhibitory rates were calculated by determining the cAMP amount of each test sample to the value obtained by subtracting the cAMP amount of the group without addition of PGE2 from the cAMP amount of the group with addition of PGE2 of 100 nM. IC50 values were calculated by a Logistic regression method.
In this connection, as the “assay buffer” and “lysis buffer” above, those as shown below were used:
Assay buffer; 1×HBSS (Hanks buffered salt solution, Nissui Pharmaceutical Co., Ltd.), 20 mM HEPES (pH 7.4, Nakarai Tesque), 0.5 mM IBMX (3-isobutyl-1-methylxanthine, WAKO), 0.02% CHAPS (Sigma), 0.1% Bovine serum albumin (Sigma), 2 μM Indomethacin (Sigma)
Lysis buffer; 50 mM NaPO4, 0.8 M KF, 1% Triton X-100, 0.2% Bovine serum albumin
For orientation: Time-resolved FRET reads energy transfer from a long-lived donor to a nearby acceptor.

T1 sequence (P35408 whole entry): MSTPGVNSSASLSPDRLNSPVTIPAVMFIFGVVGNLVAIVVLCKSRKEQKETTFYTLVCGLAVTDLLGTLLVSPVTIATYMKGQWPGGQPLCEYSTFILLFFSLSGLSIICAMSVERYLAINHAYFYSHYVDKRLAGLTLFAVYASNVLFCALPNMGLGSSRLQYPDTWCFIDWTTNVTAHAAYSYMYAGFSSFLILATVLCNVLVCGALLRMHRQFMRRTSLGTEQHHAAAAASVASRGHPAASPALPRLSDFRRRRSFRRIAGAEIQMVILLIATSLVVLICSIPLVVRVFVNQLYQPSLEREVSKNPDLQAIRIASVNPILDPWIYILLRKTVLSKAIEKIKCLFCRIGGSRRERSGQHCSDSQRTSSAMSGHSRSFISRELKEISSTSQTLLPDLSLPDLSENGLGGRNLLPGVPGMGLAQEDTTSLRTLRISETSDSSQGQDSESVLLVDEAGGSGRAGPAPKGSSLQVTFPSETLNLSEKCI

Consider `O=C(O)c1ccc(CNC(=O)c2cc(Cl)cc3ccn(Cc4ccc5ccccc5n4)c23)cc1` [Example 57], for which the melting point was 243 to 244 °C (dec.). At EP4 receptor, this compound gave an IC50 of 0.037 nM. For `O=C(NC[C@H]1CC[C@H](C(=O)O)CC1)c1cc(Cl)cc2ccn(Cc3ccc4ccccc4n3)c12` [Example 53], on EP4 receptor, it took 0.094 nM to reach half-maximal inhibition (IC50). The same measure, in the same setting: with `O=C(NC[C@H]1CC[C@H](C(=O)O)CC1)c1cc(C(F)(F)F)cc2ccn(Cc3ccc4ccccc4n3)c12` [Example 124] the figure was 0.15 nM.

As a reminder, the IC50 is the concentration at which inhibition is half-maximal. By melting point is commonly meant the temperature, or range, at which the solid turns liquid.
